According to patent EP0134650B1, “High boiling solvent system for recovery of acetic acid from aqueous solutions” (CELANESE CORPORATION, priority 1983, dated 1985):

Assay: Dissolved water in the solvent layer (extract) of acetic acid extraction
Assay type: physicochemical
Conditions: Acid in solvent layer 16.85 wt.%
Excerpt: Generally as the distribution coefficient goes up, water solubility increases in the extract. The effect for methyl n-amyl ketone and diisobutyl ketone is as follows: […]

Row | Dissolved water in solvent layer, wt.% | SMILES
1 | 3.0 wt.% | CC(C)CC(=O)CC(C)C [diisobutyl ketone]
2 | 5.0 wt.% | CCCCCC(C)=O [methyl n-amyl ketone]
